Results as given in patent US10294202B2, “Pyrrolidinones as herbicides” (FMC Corporation, priority 2013, dated 2019).

How the values were obtained:
[1] = test system: morningglory; experiment: Test A pre-/postemergence herbicide test; assay type: in vivo, Ipomoea spp.
How it was run: (§1)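 Seeds sown in loam soil/sand blend received a preemergence directed soil spray of test chemical in non-phytotoxic solvent with surfactant; postemergence plants (2–10 cm, one- to two-leaf stage) were sprayed with the same formulation. After about 10 days in greenhouse, injury was rated visually versus untreated controls, 0 (no effect) to 100 (complete control).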

[2] = test system: lambsquarters; experiment: Test C pre-/postemergence herbicide test; assay type: in vivo, Chenopodium album
How it was run: (§2)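 Visual rating, 0 (no effect) to 100 (complete control), versus untreated controls after 13 to 15 days in the greenhouse. Pre: seeds in loam/sand, sprayed at planting. Post: 1- to 4-leaf plants (2 to 18 cm) in peat-based mix. Compounds in non-phytotoxic solvent plus surfactant.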

[3] = test system: barnyardgrass; experiment: Test C pre-/postemergence herbicide test; assay type: in vivo, Echinochloa crus-galli
How it was run: as §2

[4] = test system: kochia; experiment: Test A pre-/postemergence herbicide test; assay type: in vivo, Kochia scoparia
How it was run: as §1

[5] = test system: ragweed; experiment: Test A pre-/postemergence herbicide test; assay type: in vivo, Ambrosia elatior
How it was run: as §1

[6] = test system: ryegrass, Italian; experiment: Test A pre-/postemergence herbicide test; assay type: in vivo, Lolium multiflorum
How it was run: as §1

[7] = Postemergence, 125 g ai/ha, 0 to 100 scale, 0 is no effect, 100 is complete control
[8] = Postemergence, 500 g ai/ha, 0 to 100 scale (0 no effect, 100 complete control)
[9] = Preemergence, 125 g ai/ha, 0 to 100 scale where 0 is no effect and 100 is complete control
[10] = preemergence, 500 g ai/ha, 0 to 100 scale, 0 is no effect and 100 is complete control
[11] = Preemergence, 31 g ai/ha, scale 0 to 100, 0 is no effect and 100 is complete control
[12] = Preemergence, 62 g ai/ha, scale 0 to 100 (0 no effect, 100 complete control)
[13] = Preemergence, 125 g ai/ha, scale 0 to 100 (0 no effect, 100 complete control)
[14] = Preemergence, 62 g ai/ha, scale 0 to 100
[15] = Postemergence, 125 g ai/ha, visual rating on 0 to 100 scale (0 no effect, 100 complete control), approx. 10 days
[16] = Preemergence, 500 g ai/ha, visual rating on 0 to 100 scale (0 no effect, 100 complete control)
[17] = Postemergence, 31 g ai/ha, scale 0 to 100 (0 no effect, 100 complete control)
[18] = Postemergence, 62 g ai/ha, scale 0 (no effect) to 100 (complete control)
[19] = Postemergence, 125 g ai/ha, scale 0 to 100 (0 no effect, 100 complete control)
[20] = Postemergence, 250 g ai/ha, scale 0 to 100 (0 no effect, 100 complete control)
[21] = Preemergence, 125 g ai/ha, scale 0 to 100

Compound	Plant response rating, Morningglory [1, 7]	Plant response rating, Morningglory [1, 8]	Plant response rating, Morningglory [1, 9]	Plant response rating, Morningglory [1, 10]	Lambsquarters plant response rating [2, 11]	Lambsquarters plant response rating [2, 12]	Plant response rating, Lambsquarters [2, 13]	Plant response rating (scale of 0 to 100), Lambsquarters ([2]; Preemergence, 250 g ai/ha)	Barnyardgrass plant response rating [3, 11]	Plant response rating, Barnyardgrass [3, 14]	Plant response rating, Barnyardgrass [3, 13]	Plant response rating (scale of 0 to 100; 0 is no effect, 100 is complete control), Barnyardgrass ([3]; Preemergence, 250 g ai/ha)	Barnyardgrass plant response rating [3, 12]	Plant response rating, Kochia [4, 15]	Plant response rating, Kochia [4, 8]	Plant response rating, Kochia [4, 9]	Kochia plant response rating [4, 16]	Plant response rating, Ragweed [5, 15]	Plant response rating, Ragweed [5, 8]	Plant response rating, Ragweed [5, 9]	also measured
O=C1NCC(c2ccc(C(F)(F)F)c(F)c2)C1C(=O)Nc1ccccc1F (racemic) [Compound 246]	0	0	0	0	65	65	80	90	20	75	75	90									
O=C1NCC(c2ccc(C(F)(F)F)nc2)C1C(=O)Nc1ccccc1F (racemic) [Compound 262]	0	0	0	0	100	70	80	100	45		90	95	70								
O=C1NCC(c2cccc(C(F)(F)F)c2)C1C(=O)Nc1cccc(F)c1F (centres unmarked) [Compound 241]	20	30	0	0	0	0	10	100	90	95	95	95									
O=C1NCC(c2cccc(C(F)(F)F)c2)C1C(=O)Nc1cccc(Cl)c1F (centres unmarked) [Compound 316]					0	20		65	85		90	90	85	30	40	0	30	20	30	20	Ragweed plant response rating [5, 16]: 30; Plant response rating, Ryegrass, Italian [6, 15]: 20; Plant response rating, Ryegrass, Italian [6, 8]: 30; Plant response rating, Ryegrass, Italian [6, 9]: 20; Ryegrass, Italian plant response rating [6, 16]: 50; Plant response rating, Lambsquarters [2, 17]: 55; Plant response rating, Lambsquarters [2, 18]: 65; Plant response rating, Lambsquarters [2, 19]: 40; Plant response rating, Lambsquarters [2, 20]: 65; Plant response rating, Lambsquarters [2, 21]: 65; Plant response rating, Barnyardgrass [3, 17]: 10; Plant response rating, Barnyardgrass [3, 18]: 35; Plant response rating, Barnyardgrass [3, 19]: 60; Plant response rating, Barnyardgrass [3, 20]: 70
O=C1NCC(c2cccc(OC(F)F)c2)C1C(=O)Nc1ccc(F)c(F)c1F (centres unmarked) [Compound 325]					45	70		80	85		95	95	90	60	80	70	80	20	60	30	Ragweed plant response rating [5, 16]: 50; Plant response rating, Ryegrass, Italian [6, 15]: 30; Plant response rating, Ryegrass, Italian [6, 8]: 50; Plant response rating, Ryegrass, Italian [6, 9]: 30; Ryegrass, Italian plant response rating [6, 16]: 50; Plant response rating, Lambsquarters [2, 17]: 20; Plant response rating, Lambsquarters [2, 18]: 45; Plant response rating, Lambsquarters [2, 19]: 70; Plant response rating, Lambsquarters [2, 20]: 65; Plant response rating, Lambsquarters [2, 21]: 80; Plant response rating, Barnyardgrass [3, 17]: 10; Plant response rating, Barnyardgrass [3, 18]: 25; Plant response rating, Barnyardgrass [3, 19]: 70; Plant response rating, Barnyardgrass [3, 20]: 80
